Drawing on US20250197373A1, “SMALL MOLECULE COMPOUND OR SALT THEREOF OR SOLVATE OF THEM, GUANINE NUCLEOTIDE-BINDING PROTEIN G(Q) SUBUNIT ALPHA (GNAQ) INHIBITOR CONTAINING THE SAME AND METHOD FOR TREATING AND/OR PREVENTING CANCER” (INDUSTRIAL TECHNOLOGY RESEARCH INSTITUTE, priority 2023, published 2025), this text covers inhibition and IC50 for 15 molecules.

In one test the target is T1, GNAQ (T96S) (Homo sapiens, UniProt P50148, T96S).
T1 construct: BPS Bioscience (parental reporter cell line) 60406
T1 sequence (P50148 1-359 T96S): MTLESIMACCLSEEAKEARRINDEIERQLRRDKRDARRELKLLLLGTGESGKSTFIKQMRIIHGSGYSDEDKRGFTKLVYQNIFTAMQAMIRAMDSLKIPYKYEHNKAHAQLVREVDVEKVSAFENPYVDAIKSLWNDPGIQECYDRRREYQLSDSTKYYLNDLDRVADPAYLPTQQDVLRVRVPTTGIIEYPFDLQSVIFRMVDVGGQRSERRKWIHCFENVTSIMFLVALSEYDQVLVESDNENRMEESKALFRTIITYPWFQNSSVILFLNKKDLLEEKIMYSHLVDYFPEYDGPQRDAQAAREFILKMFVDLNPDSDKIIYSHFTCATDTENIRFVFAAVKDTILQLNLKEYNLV
The test is described as follows: SRE luciferase reporter gene-HEK293 cell line, GNAQ (T96S). The test is classed as cell-based. To be noted: Cell type T96S, 20% FBS induction, read-out: GNAQ inhibitory rate; for inhibition at 0.9 µM: analytical concentration 900 nM; for inhibition at 2.7 µM: analytical concentration 2,700 nM; for inhibition at 8.1 µM: analytical concentration 8,100 nM. The procedure:
7.5×10^4 SRE-293-GNAQ (WT) or SRE-293-GNAQ (T96S) cell lines were seeded in a 24-well plate and cultured in a carbon dioxide incubator at 37° C. SRE-293-GNAQ (WT) or SRE-293-GNAQ (T96S) cell lines was derived from additionally transfecting SRE Reporter—HEK293 Recombinant Cell Line (ERK Pathway) (Catalog number: 60406; BPS Bioscience) cells with an expression vector separately expressing GNAQ (WT) or GNAQ (T96S), and screening a stable expression cell line by the antibiotic, geneticin (type number 10131035; Thermo Fisher Scientific). GNAQ (WT) or GNAQ (T96) expression vector was derived from gene synthesis and point mutation modification of GenScript company's customized services.
After 48 hours of culture, the culture medium in the 24-well plate was replaced with minimal essential medium (MEM) containing only 0.1% fetal bovine serum (FBS) and the cells were cultured overnight.
After overnight culture, the compound to be tested was added to the cells and reacted for 2 hours, and the medium at this point was still MEM medium containing only 0.1% fetal bovine serum. After reacting with the compound to be tested for 2 hours, fetal bovine serum at a final concentration of 20% was added to the cells and reacted for at least 4 hours. After the reaction, the supernatant was removed. Next, 100 μL of cell lysis reagent CelLytic M Cell Lysis Reagent (Catalog number: C2978; Sigma) was added to the cells and aspirated repeatedly several times to form a cell lysate solution with the cells. The cell lysate solution was collected in a microcentrifuge tube and centrifuged at a high speed of 14,000 rpm for 5 minutes. After that, 30 μL of supernatant was taken out and placed in a 96-well white plate for luminescence analysis, and 30 μL of firefly luminescence analysis reagent (Catalog No. E1501; Promega) diluted 3-fold was added and mixed well, and then luminescence detection was performed with a plate enzyme immunoassay analyzer (ELISA reader) to evaluate the effect of the compound to be tested on MAPK signaling induced by GNAQ through the expression of the firefly luciferase reporter gene.
In order to confirm the effect of the compounds on MAPK signaling induced by GNAQ, the screened SRE-HEK293 cells capable of expressing exogenous GNAQ (WT) and GNAQ (T96S) genes were subjected to overnight serum starvation, and 2 hours before induction with 20% fetal bovine serum, the compound to be tested (one of Compound 1 to Compound 15 prepared above) was added to the cells, and after serum induction, the expression of the firefly luciferase reporter gene was measured. Through the above steps, the inhibition of the compound to be tested on GNAQ expression could be evaluated through the expression of the reporter gene in cells.
For orientation: In a reporter assay the amount or activity of a reporter protein is the signal.

Test [1] has as its system MDA-MB-231-OE-GNAQ (T96S). The test is described as follows: Inhibition of growth of triple-negative breast cancer cells MDA-MB-231-OE-GNAQ (T96S) (PrestoBlue). Type of test: cell-based. As to conditions: Homo sapiens, 168 h, 7 days culture, 2% fetal bovine serum, read-out: Inhibitory activity (evaluated by IC50). On the procedure: Triple-negative breast cancer cells, MDA-MB-231 and MDA-MB-231-OE-GNAQ (T96S) (additionally expressing GNAQ (T96S)) were cultured in L-15 medium and in a temperature-controlled incubator without need of additional offer of 5% carbon dioxide.
1×10^3 of the cells mentioned above were seeded in a 96-well plate, placed in a temperature-controlled incubator and cultured overnight (at least 16 hours).
After overnight incubation, the supernatant was removed. Next, after 200 μL of cell culture medium (containing 2% fetal bovine serum) containing different concentrations of test compound was added to each well of the 96-well plate, the 96-well plate was placed in a 37° C. incubator for 7 days further culture. After that, an additional 30 μL of diluted PrestoBlue™ Cell Viability Reagent (Catalog Number: A13261; Thermo Fisher Scientific) (4 μL stock solution and 26 μL culture medium) was added to each well of the 96-well plate and the reaction was continued for further about 1 hour.
Finally, the fluorescence value at the wavelength of 535/615 nm of each well was read with a plate enzyme immunoassay analyzer, and the inhibitory rate of the compound on triple-negative breast cancer cells were calculated using the following formula.
Moreover, the half maximal inhibitory concentration (IC50) of the compound on the growth of triple-negative breast cancer cells was calculated with the inhibitory rate of compound on triple-negative breast cancer cells at each concentration through the online half maximal inhibitory concentration (IC50) calculation software, IC50 Calculator, provided by AAT Bioquest company on its website (https://www.aatbio.com/tools/ic50-calculator).
Finally, the inhibition of the compound on the growth of triple-negative breast cancer cells was evaluated by the calculated half maximal inhibitory concentration (IC50) of the compound on the growth of triple-negative breast cancer cells.
The inhibition of the compound on the growth of triple-negative breast cancer cells was evaluated by the half maximal inhibitory concentration (IC50) of the compound (one of Compound 1 to Compound 15 prepared above) on the growth of triple-negative breast cancer cells through the human triple-negative breast cancer cell lines MDA-MB-231 and MDA-MB-231-OE-GNAQ (T96S) (additionally expressing GNAQ (T96S)).

Usually IC50 stands for the concentration at which inhibition is half-maximal. Consider `O=C(Nc1cccc(-c2cc(-c3cccc(C(F)(F)F)c3)ncn2)c1)Nc1cc(Cl)nc(Cl)c1` [Compound 14], for which, on GNAQ (T96S), the inhibition at 0.9 µM is 10 to 39%, the inhibition at 2.7 µM was 10 to 39% and the inhibition at 8.1 µM was greater than 70%. Moreover, in test [1], the 50% inhibitory concentration (IC50) was 310 to 2500 nM.

Consider `O=C(Nc1cccc(-c2ccnc(-c3cccc(C(F)(F)F)c3)n2)c1)Nc1cc(Cl)nc(Cl)c1` [Compound 2], for which, on GNAQ (T96S), the inhibition at 0.9 µM was less than 10%, the inhibition at 2.7 µM is 10 to 39% and the inhibition at 8.1 µM is greater than 70%. Also, the IC50 in test [1] fell in the range of 310 to 2500 nM.

Turning to `O=C(Nc1ccc(-c2nc(-c3ccccc3)ncc2Cl)cc1)Nc1cc(Cl)nc(Cl)c1` [Compound 15], at GNAQ (T96S), the inhibition at 0.9 µM is less than 10%, the inhibition at 2.7 µM was in the range of 10 to 39% and the inhibition at 8.1 µM was in the range of 40 to 70%. For the same molecule, the IC50 in test [1] was 310 to 2500 nM.

Take `O=C(Nc1cccc(-c2cccc(-c3ccncc3)n2)c1)Nc1cc(Cl)nc(Cl)c1` [Compound 13]: at GNAQ (T96S), the inhibition at 0.9 µM fell in the range of 10 to 39%, the inhibition at 2.7 µM was 40 to 70% and the inhibition at 8.1 µM is greater than 70%. For the same molecule, the concentration for half-maximal inhibition (IC50) in test [1] lay in the range of 310 to 2500 nM.

`O=C(Nc1ccc(-c2ccnc(-c3ccncc3)n2)cc1)Nc1ccc(Cl)c(C(F)(F)F)c1` [Compound 6]: on GNAQ (T96S), the inhibition at 0.9 µM lay in the range of 10 to 39%, the inhibition at 2.7 µM lay within 10 to 39% and the inhibition at 8.1 µM is 40 to 70%. Moreover, in test [1], the IC50 is 2500 to 5000 nM.

In the case of `O=C(Nc1ccc(-c2cccc(-c3ccncc3)n2)cc1)Nc1ccc(Cl)c(C(F)(F)F)c1` [Compound 12], at GNAQ (T96S), the inhibition at 0.9 µM was 10 to 39%, the inhibition at 2.7 µM fell in the range of 40 to 70% and the inhibition at 8.1 µM is 40 to 70%. The IC50 in test [1] fell in the range of 310 to 2500 nM.

Take `O=C(Nc1cccc(-c2ccnc(-c3ccc(F)c(F)c3)n2)c1)Nc1cc(Cl)nc(Cl)c1` [Compound 4]: at GNAQ (T96S), the inhibition at 0.9 µM was less than 10%, the inhibition at 2.7 µM lay within 10 to 39% and the inhibition at 8.1 µM fell in the range of 40 to 70%. The half-inhibitory concentration (IC50) in test [1] was in the range of 310 to 2500 nM.

As for `FC(F)(F)c1cccc(-c2cccc(-c3ccc(NC(=S)Nc4cc(Cl)nc(Cl)c4)cc3)n2)c1` [Compound 10], on GNAQ (T96S), the inhibition at 0.9 µM was less than 10%, the inhibition at 2.7 µM is 40 to 70% and the inhibition at 8.1 µM was greater than 70%. Also, the concentration for half-maximal inhibition (IC50) in test [1] lay in the range of 310 to 2500 nM.

For the molecule `O=C(Nc1ccc(-c2ccnc(-c3cccc(C(F)(F)F)c3)n2)cc1)Nc1ccc(Cl)c(C(F)(F)F)c1` [Compound 8], at GNAQ (T96S), the inhibition at 0.9 µM was less than 10%, the inhibition at 2.7 µM was less than 10% and the inhibition at 8.1 µM is 10 to 39%. Besides, in test [1], the half-inhibitory concentration (IC50) lay within 310 to 2500 nM.

`N#Cc1cccc(-c2cccc(-c3ccc(NC(=S)Nc4cc(Cl)nc(Cl)c4)cc3)n2)c1` [Compound 11]: at GNAQ (T96S), the inhibition at 0.9 µM is 10 to 39%, the inhibition at 2.7 µM lay in the range of 40 to 70% and the inhibition at 8.1 µM is greater than 70%. Moreover, the 50% inhibitory concentration (IC50) in test [1] lay within 310 to 2500 nM.

Take `O=C(Nc1ccc(-c2cccc(-c3cccc(C(F)(F)F)c3)n2)cc1)Nc1cc(Cl)nc(Cl)c1` [Compound 9]: on GNAQ (T96S), the inhibition at 0.9 µM is less than 10%, the inhibition at 2.7 µM was in the range of 10 to 39% and the inhibition at 8.1 µM is 40 to 70%. In addition, the half-inhibitory concentration (IC50) in test [1] lay in the range of 310 to 2500 nM.

As for `N#Cc1cccc(-c2nccc(-c3cccc(NC(=O)Nc4cc(Cl)nc(Cl)c4)c3)n2)c1` [Compound 3], at GNAQ (T96S), the inhibition at 0.9 µM is less than 10%, the inhibition at 2.7 µM lay in the range of 40 to 70% and the inhibition at 8.1 µM was greater than 70%. Moreover, the IC50 in test [1] was 310 to 2500 nM.

For `O=C(Nc1cccc(-c2ccnc(-c3cccc(C(F)(F)F)c3)n2)c1)c1cc(Cl)nc(Cl)c1` [Compound 5], at GNAQ (T96S), the inhibition at 0.9 µM is less than 10%, the inhibition at 2.7 µM is less than 10% and the inhibition at 8.1 µM is less than 10%. Besides, the IC50 in test [1] lay in the range of 310 to 2500 nM.

`O=C(Nc1cccc(-c2ccnc(-c3ccnc(Cl)c3)n2)c1)Nc1cc(Cl)nc(Cl)c1` [Compound 1]: on GNAQ (T96S), the inhibition at 0.9 µM is less than 10%, the inhibition at 2.7 µM is 10 to 39% and the inhibition at 8.1 µM is greater than 70%. Moreover, in test [1], the IC50 was 310 to 2500 nM.

Turning to `O=C(Nc1ccc(-c2ccnc(-c3cccc(C(F)(F)F)c3)n2)cc1)Nc1cc(Cl)nc(Cl)c1` [Compound 7], at GNAQ (T96S), the inhibition at 0.9 µM was less than 10%, the inhibition at 2.7 µM is 10 to 39% and the inhibition at 8.1 µM fell in the range of 10 to 39%. In addition, the IC50 in test [1] lay in the range of 310 to 2500 nM.
